# Data reported in US20190336496A1, “SELECTIVE BCL-2 INHIBITORS IN COMBINATION WITH AN ANTI-PD-1 OR AN ANTI-PD-L1 ANTIBODY FOR THE TREATMENT OF CANCERS” (AbbVie Inc., priority 2018, published 2019).
# Tests used:
# MC38 tumors [1] = assay: MC38 colon carcinoma syngeneic model, immune competent C57BL/6 mice; format: in vivo, mouse; details: MC38 in C57BL/6 mice; venetoclax 50 mg/kg/day orally 14 days; antibody 10 mg/kg IP every 4 days, 3 times; day 25
# Protocol: MC38, mouse colon carcinoma cell line was obtained from National Cancer Institute (NCI).
# (§1) Compound (I),venetoclax, was formulated in 10% ethanol+30% PEG 400+60% Phosal® 50PG. Venetoclax was administered orally once a day for 14 days at 50 mg/kg/day.
# (§2) 1×10^5 CT26, EMT6 or MC38 cells were subcutaneously injected with Matrigel into the flanks of BALB/c, CB6F1 or C57BL/6 mice, respectively. Seven days later, mice were randomized to treatment groups of vehicle, venetoclax, anti-PD-1/PD-L1 or the combination of venetoclax and anti-PD-1/PD-L1. Tumor volume was determined via measurements of the length (L) and width (W) of the tumor with electronic calipers and the volume was calculated according to the following equation: V=L×W2/2 using Study Director Version 2.1.11 (Studylog Systems Inc., South San Francisco). Complete response (CR) was defined as reduction in tumor volume to ≤25 mm^3 over at least 3 successive measurements.
# human PBMCs = assay: In vitro sensitivity of human PBMCs; format: cell-based
# Protocol: Human PBMCs were thawed and cultured overnight in 30 U/mL of interleukin-2 (IL-2). Cells were harvested, washed once with complete media and counted. PBMCs were plated at a density of 5×10^5 cells per well in a 48-well plate with 30 U/mL IL-2. For stimulation of T-cells, cells were plated in anti-CD3-coated wells (2.5 μg/mL; ThermoFisher cat. #16-0037-85, clone OKT3) and soluble anti-CD28 was added (1 μg/mL; ThermoFisher cat. #16-0289-85, clone CD28.2). Cells were treated with increasing concentrations of venetoclax for 24 hours (dimethyl sulfoxide (DMSO) was used as control). Cells were harvested, stained and subjected to flow cytometry analysis with a BD LSRII instrument (BD Biosciences)
# However, when PBMCs were stimulated with anti-CD3 and anti-CD28 for 72 hours before treating with venetoclax, the T-cells were not sensitive to venetoclax. (FIG. 7B). While the proportion of naïve T-cells (CD4^+CD62L^+CD45RO^− and […]) decreased with increasing venetoclax concentrations, the proportion of CD4^+ central memory (TCM; CD62L^+CD45RO^+) and CD8^+ terminally differentiated effector memory (TEMRA; CD8^+CD62L^−CD45RO^−) and effector memory cells (TEM; CD8^+CD62L^−CD45RO^+) increased relative to the number of surviving T-cells (FIGS. 8A and 8C). […] In separate experiments, human PBMCs were thawed, rested overnight and then treated with venetoclax for 24 hours. Similar results were observed when increasing the number of tested samples (n=9 donors), and refining the markers for the different T-cell subsets: naïve T-cells (TN; CD62L+CD45RA+), central memory (TCM; CD62L+CD45RA−), effector memory cells (TEM; CD62L−CD45RA−) and terminally differentiated effector memory (TEMRA; CD62L−CD45RA+) (FIGS. 8E, 8F, 8G). Venetoclax decreases the proportion of naïve T-cells, but not memory cells, and specifically induces an increase in effector memory T-cells. It can therefore be seen that, while naïve T- and B-cells were sensitive to venetoclax, memory T-cells were less sensitive to venetoclax. While TCM cells home to lymph nodes and efficiently stimulate dendritic cells, TEM and TEMRA cells home to tissues, comprised of antigen-experienced cells and are ready to mediate rapid effector and cytotoxic functions necessary to kill the tumor.
# MC38 tumors [2] = assay: MC38 model in immune deficient SCID mice; format: in vivo, mouse
# Protocol: All experiments were conducted in compliance with the National Institutes of Health Guide for Care and Use of Laboratory Animals guidelines in a facility accredited by the Association for the Assessment and Accreditation of Laboratory Animal Care (AAALAC). BALB/c, C57BL/6, CB6F1 (C57BL/6 bred with BALB/c) and SCID mice were obtained from Charles River (Wilmington, Mass.). SCID mice have severe combined immune deficiency (SCID) and are characterized by an absence of functional T- and B-cells.
# To further test the direct effects of venetoclax on the immune cells, SCID mice were transplanted with MC38 cells and treated with vehicle or anti-PD-1/PD-L1/venetoclax as single agent and in combinations (FIGS. 12E and 12F).
# CMV-positive human PBMCs = assay: CMV recall assay using human CMV+ PBMC; format: cell-based
# Protocol: The cytomegalovirus (CMV) recall assay was used to assess the functional effects of Compound (I) on antigen-specific immune cells. This assay used CMV antigen to stimulate pre-existing memory T-cells in CMV-positive human PBMCs. Human CMV-positive PBMCs and CMV antigen were purchased from Astarte Biologics (Cat.No:1001 and Cat. No. 1004, respectively). To measure whether T cells from CMV-positive donor are functionally active, 2×10^5 CMV-positive PBMCs were stimulated with 0.05 μg/mL of CMV antigen and at the same time venetoclax was added. The cells were cultured in Roswell Park Memorial Institute (RPMI) media supplemented with 10% fetal bovine serum (FBS). On day 4, cells were quickly re-stimulated with phorbol 12-myristate-13-acetate (PMA, 0.08 μM)/ionomycin (1.3 μM) and treated with brefeldin A (5 μg/mL) for 4 hours. Cells were stained with the following commercial antibodies: CD3, CD4, IFNγ, and IL-2 (all from Biolegend), as well as with the Zombie Green™ fixable viability kit. Cells were analyzed using an LSRFortessa™ X-20 instrument (BD Biosciences).
# The remaining live cells were gated by CD3 and CD4 expression whereas CD3^+CD4^+ cells were considered as CD4^+ T-cells and CD3^+CD4^− cells were considered as CD8^+ T-cells. Production of IFNγ and IL-2 cytokines by CD8+ T-cells was assessed by flow cytometry (FIG. 10B, 10C).
# CT26 tumors = assay: CT26 mouse colon carcinoma syngeneic model; format: in vivo; details: CT26 in BALB/c mice; venetoclax 50 mg/kg/day orally 14 days; antibody 10 mg/kg IP every 4 days, 3 times; day 18
# Protocol: EMT6, mouse mammary carcinoma and CT26, mouse colon carcinoma, cell lines were obtained from ATCC (Manassas, Va.).
# as §1, §2
# [3] = tested on: CT26, MC38 and EMT6 cells; assay: In vitro sensitivity of CT26, EMT6 and MC38 cells (FIG. 1); format: cell-based, mouse; details: increasing doses, CellTiter-Glo after 72 hours
# Protocol: FIG. 1: In vitro sensitivity of CT26, EMT6 and MC38 cells to Compound (I). […] CT26, MC38 and EMT6 cells were incubated with increasing doses of Compound (I) and viability was measured using CellTiter®-Glo (Promega) after 72 hours as described in Example 1.
# Cancer Immunol Res. 5; 29-41 (2017)). Any reduction in checkpoint inhibitor-mediated tumor growth inhibition or response rates caused by the addition of venetoclax would indicate potential antagonism. The panel was composed of syngeneic models of solid tumors: CT26, MC38 (both colorectal carcinoma) and EMT6 (breast cancer). […] Likewise, only modest anti-tumor activity could be observed in these models with venetoclax alone, dosed daily at 50 mg/kg for 14 days (FIG. 3, FIG. 6, FIGS. 12A, 12B, 12C, and 12D). […] Rather, it enhanced their efficacy in certain cases.
# [4] = unstimulated, increasing concentrations
compound,measurement,setting,value
"CC1(C)CCC(CN2CCN(c3ccc(C(=O)NS(=O)(=O)c4ccc(NCC5CCOCC5)c([N+](=O)[O-])c4)c(Oc4cnc5[nH]ccc5c4)c3)CC2)=C(c2ccc(Cl)cc2)C1 [Compound (I), venetoclax]",tumor growth inhibition (TGI),MC38 tumors [1],41%
same,proportion of the T-cell subsets,human PBMCs; CD3/CD28 stimulated conditions,did not affect
same,sensitivity of T-cells,human PBMCs; PBMCs stimulated with anti-CD3 and anti-CD28 for 72 hours before treatment,not sensitive
same,number of B-cells and T-cells (CD4+ and CD8+),"human PBMCs; unstimulated PBMCs cultured 72 hours, then 24 hours treatment",dose-dependent decrease
same,"proportion of CD4+ TCM, CD8+ TEMRA and CD8+ TEM cells relative to surviving T-cells",human PBMCs; [4],increased
same,proportion of naïve T-cells,human PBMCs; [4],decreased
same,anti-tumor efficacy / tumor growth in SCID mice,MC38 tumors [2],did not show anti-tumor efficacy
same,total number of lymphocytes,"CMV-positive human PBMCs; 0.05 μg/mL CMV antigen, day 4",reduced the total number of lymphocytes in a dose-dependent manner
same,"remaining T-cell activation, MFI of IFNγ and IL-2 (CD8+ T-cells)","CMV-positive human PBMCs; CMV antigen, re-stimulated with PMA/ionomycin on day 4",dose-dependent inversely proportional increase
same,tumor growth inhibition (TGI),CT26 tumors,16%
same,in vitro sensitivity (viability),[3],resistant
same,in vitro sensitivity (viability),[3]; listed as venetoclax,None of these tumor cell lines exhibited sensitivity
